The target in one data set is GLP-1R (Homo sapiens, UniProt P43220). The experiment in a line: GLP-1R activation: cAMP increase in CHO cells stably expressing GLP-1R. It counts as cell-based. The conditions noted are these: read-out: EC50.
A short description of data set [1]: Microsomal stability, human liver microsomes (predicted hepatic clearance). The conditions noted are these: predicted from in vitro microsomal stability data.
The mark [2] stands for this setting: cAMP increase, CHO cells stably expressing GLP-1R, 10 point dose response, 30 minutes incubation.

Read-outs that look alike come from different tables or passages of the source.

Chain of GLP-1R (P43220 24-463): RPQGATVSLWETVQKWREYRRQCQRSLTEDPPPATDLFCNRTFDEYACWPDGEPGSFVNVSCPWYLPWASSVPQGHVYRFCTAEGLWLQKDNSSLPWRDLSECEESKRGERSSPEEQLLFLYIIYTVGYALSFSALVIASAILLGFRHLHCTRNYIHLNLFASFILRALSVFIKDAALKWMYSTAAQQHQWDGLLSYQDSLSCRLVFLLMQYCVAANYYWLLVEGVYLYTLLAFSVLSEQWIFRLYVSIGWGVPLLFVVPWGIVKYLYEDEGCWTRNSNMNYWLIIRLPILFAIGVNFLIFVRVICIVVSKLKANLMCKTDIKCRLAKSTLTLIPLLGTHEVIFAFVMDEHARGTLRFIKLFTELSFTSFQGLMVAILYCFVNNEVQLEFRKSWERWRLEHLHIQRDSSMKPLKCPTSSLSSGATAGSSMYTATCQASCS

As a reminder, the EC50 is the concentration that produces a half-maximal response. As to `N#Cc1ccc(COc2cccc(-c3ccc(Cc4nc5ccc(C(=O)O)cc5n4CC4(n5ccnn5)CC4)cc3)n2)c(F)c1` [Example 461, 1-((1-(1H-1,2,3-triazol-1-yl)cyclopropyl)methyl)-2-(4-(6-((4-cyano-2-fluorobenzyl)oxy)pyridin-2-yl)benzyl)-1H-benzo[d]imidazole-6-carboxylic acid], the EC50 on GLP-1R (setting [2]) came out at 2.47 nM. Moreover, the “Predicted Hepatic Clearance (Pred. Cl.)” value in data set [1] was 7.17 mL/min/kg.
Turning to `CCn1cncc1Cn1c(Cc2ccc(-c3ccc(F)c(OCc4ccc(Cl)cc4F)c3)cc2F)nc2ccc(C(=O)O)cc21` [Example 466, 2-((3′-((4-chloro-2-fluorobenzyl)oxy)-3,4′-difluoro-[1,1′-biphenyl]-4-yl)methyl)-1-((1-ethyl-1H-imidazol-5-yl)methyl)-1H-benzo[d]imidazole-6-carboxylic acid], on GLP-1R (setting [2]), the EC50 was found to be 1.87 nM. Moreover, the “Predicted Hepatic Clearance (Pred. Cl.)” value in data set [1] is 3.83 mL/min/kg.
With `N#Cc1ccc(COc2cccc(-c3ccc(Cc4nc5c(F)cc(C(=O)O)cc5n4CC(O)CCO)c(F)c3)n2)c(F)c1` (centres unmarked) [Example 468, 2-[[4-[6-[(4-cyano-2-fluoro-phenyl)methoxy]-2-pyridyl]-2-fluoro-phenyl]methyl]-3-(2,4-dihydroxybutyl)-7-fluoro-benzimidazole-5-carboxylic acid], the EC50 on GLP-1R (setting [2]) turned out to be 26.9 nM. In data set [1], the “Predicted Hepatic Clearance (Pred. Cl.)” value was 2.17 mL/min/kg.
Turning to `COCCn1c(Cc2ccc(-c3cccc(OCc4cc(C(F)(F)F)ccc4OC)n3)cc2F)nc2ccc(C(=O)O)cc21` [Example 470, 2-(2-fluoro-4-(6-((2-methoxy-5-(trifluoromethyl)benzyl)oxy)pyridin-2-yl)benzyl)-1-(2-methoxyethyl)-1H-benzo[d]imidazole-6-carboxylic acid], at GLP-1R (setting [2]), the EC50 was 1250 nM. The “Predicted Hepatic Clearance (Pred. Cl.)” value in data set [1] was less than 1.83 mL/min/kg.
With `N#Cc1ccc(COc2cccc(-c3ccc(Cc4nc5c(F)cc(C(=O)O)cc5n4C[C@@H](O)CCO)cc3F)n2)c(F)c1` [Example 471, (S)-2-(4-(6-((4-cyano-2-fluorobenzyl)oxy)pyridin-2-yl)-3-fluorobenzyl)-1-(2,4-dihydroxybutyl)-4-fluoro-1H-benzo[d]imidazole-6-carboxylic], the EC50 on GLP-1R (setting [2]) was found to be 13.7 nM. Moreover, the “Predicted Hepatic Clearance (Pred. Cl.)” value in data set [1] was 4 mL/min/kg.
Regarding `COCCn1c(Cc2ccc(-c3ccc(F)c(OCc4ccc(Cl)cc4F)c3)cc2F)nc2ccc(C(=O)O)cc21` [Example 472, 2-((3′-((4-chloro-2-fluorobenzyl)oxy)-3,4′-difluoro-[1,1′-biphenyl]-4-yl)methyl)-1-(2-methoxyethyl)-1H-benzo[d]imidazole-6-carboxylic acid], the EC50 at GLP-1R (setting [2]) was 20.9 nM. Moreover, the “Predicted Hepatic Clearance (Pred. Cl.)” value in data set [1] is less than 1.83 mL/min/kg.
For `O=C(O)c1ccc2nc(Cc3ccc(-c4ccc(F)c(OCc5ccc(Cl)cc5F)c4)cc3F)n(CCO)c2c1` [Example 476, 2-[[4-[3-[(4-chloro-2-fluoro-phenyl)methoxy]-4-fluoro-phenyl]-2-fluoro-phenyl]methyl]-3-(2-hydroxyethyl)benzimidazole-5-carboxylic acid], in that order: 366 nM and 2.17 mL/min/kg.
For `COCCn1c(Cc2ccc(-c3cccc(OCc4ccc(Cl)cc4F)n3)cc2F)nc2ccc(C(=O)O)cc21` [Example 478, 2-(4-(6-((4-chloro-2-fluorobenzyl)oxy)pyridin-2-yl)-2-fluorobenzyl)-1-(2-methoxyethyl)-1H-benzo[d]imidazole-6-carboxylic acid], the EC50 at GLP-1R (setting [2]) is 9.19 nM. The “Predicted Hepatic Clearance (Pred. Cl.)” value in data set [1] is 3.17 mL/min/kg.
As to `COCCn1c(Cc2ccc(-c3cccc(OCc4ccc(C(F)(F)F)cc4F)n3)cc2F)nc2ccc(C(=O)O)cc21` [Example 480, 2-[[2-fluoro-4-[6-[[2-fluoro-4-(trifluoromethyl)phenyl]methoxy]-2-pyridyl]phenyl]methyl]-3-(2-methoxyethyl)benzimidazole-5-carboxylic acid], the EC50 on GLP-1R (setting [2]) turned out to be 6.59 nM. For the same molecule, the “Predicted Hepatic Clearance (Pred. Cl.)” value in data set [1] is less than 1.83 mL/min/kg.
Regarding `COCCn1c(Cc2ccc(-c3cccc(OCc4cc(F)c(Cl)cc4OC)n3)cc2F)nc2ccc(C(=O)O)cc21` [Example 481, 2-(4-(6-((4-chloro-5-fluoro-2-methoxybenzyl)oxy)pyridin-2-yl)-2-fluorobenzyl)-1-(2-methoxyethyl)-1H-benzo[d]imidazole-6-carboxylic acid], on GLP-1R (setting [2]), the EC50 was 2.9 nM. The “Predicted Hepatic Clearance (Pred. Cl.)” value in data set [1] is less than 1.83 mL/min/kg.
For `CC(=O)N1CC[C@@H]1Cn1c(Cc2ccc(-c3cccc(OCc4ccc(C#N)cc4F)n3)cc2F)nc2ccc(C(=O)O)cc21` [Example 483, (R)-1-((1-acetylazetidin-2-yl)methyl)-2-(4-(6-((4-cyano-2-fluorobenzyl)oxy)pyridin-2-yl)-2-fluorobenzyl)-1H-benzo[d]imidazole-6-carboxylic acid], the EC50 at GLP-1R is 3.94 nM. For the same molecule, in data set [1], the “Predicted Hepatic Clearance (Pred. Cl.)” value was 2.5 mL/min/kg.
`N#Cc1ccc(COc2cccc(-c3ccc(Cc4nc5ccc(C(=O)O)cc5n4Cc4ccon4)c(F)c3)n2)c(F)c1` [Example 484, 2-(4-(6-((4-cyano-2-fluorobenzyl)oxy)pyridin-2-yl)-2-fluorobenzyl)-1-(isoxazol-3-ylmethyl)-1H-benzo[d]imidazole-6-carboxylic acid]: the EC50 on GLP-1R (setting [2]) came to 1.06 nM. In addition, the “Predicted Hepatic Clearance (Pred. Cl.)” value in data set [1] is 3.45 mL/min/kg.
`CC(=O)NCCn1c(Cc2ccc(-c3cccc(OCc4ccc(C#N)cc4F)n3)cc2F)nc2ccc(C(=O)O)cc21` [Example 485, 1-(2-acetamidoethyl)-2-(4-(6-((4-cyano-2-fluorobenzyl)oxy)pyridin-2-yl)-2-fluorobenzyl)-1H-benzo[d]imidazole-6-carboxylic acid]: the EC50 at GLP-1R came out at 103 nM. For the same molecule, in data set [1], the “Predicted Hepatic Clearance (Pred. Cl.)” value is 3.67 mL/min/kg.
As to `N#Cc1ccc(COc2cccc(-c3cc(F)c(Cc4nc5ccc(C(=O)O)cc5n4Cc4ccon4)cc3F)n2)c(F)c1` [Example 486, 2-(4-(6-((4-cyano-2-fluorobenzyl)oxy)pyridin-2-yl)-2,5-difluorobenzyl)-1-(isoxazol-3-ylmethyl)-1H-benzo[d]imidazole-6-carboxylic acid], the EC50 at GLP-1R (setting [2]) came out at 1.05 nM. In data set [1], the “Predicted Hepatic Clearance (Pred. Cl.)” value is 5 mL/min/kg.
The like results for `COCCn1c(Cc2ccc(-c3cccc(OCc4ccc(C(F)(F)F)nc4F)n3)cc2F)nc2ccc(C(=O)O)cc21` [Example 487, 2-(2-fluoro-4-(6-((2-fluoro-6-(trifluoromethyl)pyridin-3-yl)methoxy)pyridin-2-yl)benzyl)-1-(2-methoxyethyl)-1H-benzo[d]imidazole-6-carboxylic acid] were, in that order, 100 nM and 5.33 mL/min/kg.
`CC(=O)N1CCC[C@H](Cn2c(Cc3ccc(-c4cccc(OCc5ccc(C#N)cc5F)n4)cc3F)nc3ccc(C(=O)O)cc32)C1` [Example 488, (R)-1-((1-acetylpiperidin-3-yl)methyl)-2-(4-(6-((4-cyano-2-fluorobenzyl)oxy)pyridin-2-yl)-2-fluorobenzyl)-1H-benzo[d]imidazole-6-carboxylic acid]: the EC50 at GLP-1R (setting [2]) came out at 1090 nM. For the same molecule, in data set [1], the “Predicted Hepatic Clearance (Pred. Cl.)” value was 10 mL/min/kg.

Values taken from patent publication US11702404B2, “GLP-1R modulating compounds” (priority 2019, dated 2023).
